From patent US8609661B2, “Pyrimido-pyrrolo-quinoxalinedione inhibitors of cystic fibrosis transmembrane conductance regulator protein and uses therefor” (The Regents of the University of California, priority 2009, dated 2013)
Like-named read-outs stand apart in the source and are kept apart here.

Molecular target: T1, human wildtype CFTR (Homo sapiens, UniProt P13569)
T1 construct: expressed in transfected cells; host or cells: Fischer rat thyroid (FRT) cells
Test: Fluorescence platereader assay of CFTR-mediated iodide influx (YFP quenching) in FRT cells
Assay type: cell-based
Settings: for IC50: apparent IC50 from concentration-inhibition data, fluorescence platereader assay; for inhibition at 5 µM / inhibition at 25 µM: FRT
In short: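 Fischer rat thyroid cells co-expressing human wildtype CFTR and the YFP-H148Q/1152L halide sensor were seeded at 20,000 cells per well in 96-well black-walled plates and assayed 48 h later at confluence. After PBS washes and a 15 min incubation, CFTR was maximally activated with an agonist mixture. Fluorescence was recorded for 2 s before and 10 s after adding 160 μL iodide-substituted PBS, and iodide influx rates came from non-linear regression.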

[1] = Table 2, screening, 5 μM, read-out: % Inhibition at 5 μM
[2] = Table 2, screening, 25 μM, read-out: % Inhibition at 25 μM
[3] = read-out: % inhibition at 25/5 μM (5 μM value), Table 1, 5 μM compound
[4] = read-out: % inhibition at 25/5 μM (25 μM value), Table 1, 25 μM compound

T1 sequence (P13569 whole entry): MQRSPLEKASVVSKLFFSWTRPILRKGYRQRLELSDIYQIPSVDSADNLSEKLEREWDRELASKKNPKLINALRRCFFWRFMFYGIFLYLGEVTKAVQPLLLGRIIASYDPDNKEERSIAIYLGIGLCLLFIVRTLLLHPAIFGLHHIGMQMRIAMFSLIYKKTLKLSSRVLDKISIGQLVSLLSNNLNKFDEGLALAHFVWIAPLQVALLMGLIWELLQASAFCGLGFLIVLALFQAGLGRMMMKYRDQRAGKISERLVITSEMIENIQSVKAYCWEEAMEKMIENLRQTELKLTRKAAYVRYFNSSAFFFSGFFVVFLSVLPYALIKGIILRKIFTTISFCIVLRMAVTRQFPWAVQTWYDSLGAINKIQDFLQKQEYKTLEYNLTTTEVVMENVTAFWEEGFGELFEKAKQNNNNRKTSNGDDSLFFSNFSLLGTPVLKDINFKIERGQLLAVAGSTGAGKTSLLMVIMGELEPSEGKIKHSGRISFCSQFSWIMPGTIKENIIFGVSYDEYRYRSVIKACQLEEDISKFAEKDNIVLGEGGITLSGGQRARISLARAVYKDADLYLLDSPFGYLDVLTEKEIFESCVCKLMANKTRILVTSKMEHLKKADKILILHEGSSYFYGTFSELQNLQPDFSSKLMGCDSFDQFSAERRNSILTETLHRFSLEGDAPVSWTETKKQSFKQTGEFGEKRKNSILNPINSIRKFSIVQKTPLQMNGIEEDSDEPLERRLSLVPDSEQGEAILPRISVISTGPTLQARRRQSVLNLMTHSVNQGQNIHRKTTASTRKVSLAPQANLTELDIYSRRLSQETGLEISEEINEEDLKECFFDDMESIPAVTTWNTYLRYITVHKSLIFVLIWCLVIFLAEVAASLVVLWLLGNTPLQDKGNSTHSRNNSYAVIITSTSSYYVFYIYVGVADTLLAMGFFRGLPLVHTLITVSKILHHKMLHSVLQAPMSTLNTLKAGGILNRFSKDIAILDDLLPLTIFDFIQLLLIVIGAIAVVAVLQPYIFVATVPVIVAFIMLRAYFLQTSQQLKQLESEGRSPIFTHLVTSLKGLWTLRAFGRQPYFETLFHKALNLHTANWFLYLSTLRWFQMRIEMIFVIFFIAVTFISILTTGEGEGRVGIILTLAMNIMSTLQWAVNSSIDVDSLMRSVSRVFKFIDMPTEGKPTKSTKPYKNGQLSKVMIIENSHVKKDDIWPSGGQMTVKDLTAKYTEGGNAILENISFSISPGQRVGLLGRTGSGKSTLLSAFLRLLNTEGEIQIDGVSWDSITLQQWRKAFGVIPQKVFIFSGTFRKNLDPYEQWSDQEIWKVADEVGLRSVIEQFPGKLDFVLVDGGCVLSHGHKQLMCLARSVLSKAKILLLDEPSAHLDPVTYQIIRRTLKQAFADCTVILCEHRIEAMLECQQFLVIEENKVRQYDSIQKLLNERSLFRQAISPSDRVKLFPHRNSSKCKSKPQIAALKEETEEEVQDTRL

| Compound | IC50 | inhibition at 5 µM [1] | inhibition at 25 µM [2] | inhibition at 5 µM [3] | inhibition at 25 µM [4] |
| --- | --- | --- | --- | --- | --- |
| COc1ccc(-c2c3c(=O)n(C)c(=O)n(C)c3c3n2-c2ccccc2NC3c2ccccc2F)cc1 (stereo not drawn) |  | < 10% | 39% |  |  |
| Cn1c(=O)c2c(-c3ccccc3)n3c(c2n(C)c1=O)C(c1cc([N+](=O)[O-])ccc1O)Nc1ccccc1-3 (stereo not drawn) |  | 12% | 40% |  |  |
| COc1cc(O)ccc1C1Nc2ccccc2-n2c(-c3ccccc3F)c3c(=O)n(C)c(=O)n(C)c3c21 (stereo not drawn) |  | < 10% | 41% |  |  |
| Cc1ccccc1-c1c2c(=O)n(C)c(=O)n(C)c2c2n1-c1ccccc1NC2c1ccc(O)c(O)c1 (stereo not drawn) |  | < 10% | 38% |  |  |
| C=CCc1cccc(C2Nc3ccccc3-n3c(-c4ccccc4)c4c(=O)n(C)c(=O)n(C)c4c32)c1O (stereo not drawn) |  | < 10% | 31% |  |  |
| COc1ccc(-c2c3c(=O)n(C)c(=O)n(C)c3c3n2-c2ccccc2NC3c2cccs2)cc1 (stereo not drawn) |  | < 10% | 34% |  |  |
| COc1ccc(-c2c3c(=O)n(C)c(=O)n(C)c3c3n2-c2ccccc2NC3c2cccc(F)c2)cc1 (stereo not drawn) |  | < 10% | 37% |  |  |

Further lines, results first:

| IC50 | inhibition at 5 µM [1] | inhibition at 25 µM [2] | inhibition at 5 µM [3] | inhibition at 25 µM [4] | Compound |
| --- | --- | --- | --- | --- | --- |
| 2000 nM |  |  |  |  | Cc1cccc(-c2c3c(=O)n(C)c(=O)n(C)c3c3n2-c2ccccc2NC3c2cccc([N+](=O)[O-])c2F)c1 (stereo not drawn) [PPQ-212, 7,9-Dimethyl-11-(3-methylphenyl)-6-(2-fluoro-3-nitrophenyl)-5,6-dihydro-pyrimido[4′,5′-3,4]pyrrolo[1,2-a]quinoxaline-8,10-(7H,9H)-dione] |
|  | 34% | 77% |  |  | Cn1c(=O)c2c(-c3ccccc3)n3c(c2n(C)c1=O)C(c1cccs1)Nc1ccccc1-3 (stereo not drawn) [PPQ-113, 7,9-Dimethyl-11-phenyl-6-(thienyl-2-yl)-5,6-dihydro-pyrimido[4′,5′-3,4]pyrrolo[1,2-a]quinoxaline-8,10-(7H,9H)-dione] |
|  | 20% | 55% |  |  | COc1cc(O)ccc1C1Nc2ccccc2-n2c(-c3cccc(C)c3)c3c(=O)n(C)c(=O)n(C)c3c21 (stereo not drawn) [PPQ-245, 7,9-Dimethyl-11-(3-methylphenyl)-6-(2-methoxy-4-hydroxyphenyl)-5,6-dihydro-pyrimido[4′,5′-3,4]pyrrolo[1,2-a]quinoxaline-8,10-(7H,9H)-dione] |
| 1700 nM | 63% | 86% | 63% | 86% | COc1cccc(C2Nc3ccccc3-n3c(-c4ccccc4)c4c(=O)n(C)c(=O)n(C)c4c32)c1 (stereo not drawn) [PPQ-204, 7,9-Dimethyl-11-phenyl-6-(3-methoxyphenyl)-5,6-dihydro-pyrimido[4′,5′-3,4]pyrrolo[1,2-a]quinoxaline-8,10-(7H,9H)-dione] |
|  | 50% | > 95% |  |  | Cc1ccccc1-c1c2c(=O)n(C)c(=O)n(C)c2c2n1-c1ccccc1NC2c1cccc(F)c1F (stereo not drawn) [PPQ-221, 7,9-Dimethyl-11-(2-methylphenyl)-6-(2,3-difluorophenyl)-5,6-dihydro-pyrimido[4′,5′-3,4]pyrrolo[1,2-a]quinoxaline-8,10-(7H,9H)-dione] |
| 3000 nM | 46% | > 95% | 46% |  | Cc1cccc(C2Nc3ccccc3-n3c(-c4ccccc4C)c4c(=O)n(C)c(=O)n(C)c4c32)c1 (stereo not drawn) [PPQ-217, 7,9-Dimethyl-11-(2-methylphenyl)-6-(3-methylphenyl)-5,6-dihydro-pyrimido[4′,5′-3,4]pyrrolo[1,2-a]quinoxaline-8,10-(7H,9H)-dione] |
|  | 20% | 58% |  |  | Cc1ccc(C2Nc3ccccc3-n3c(-c4ccccc4F)c4c(=O)n(C)c(=O)n(C)c4c32)cc1 (stereo not drawn) [PPQ-237, 7,9-Dimethyl-11-(2-fluorophenyl)-6-(4-methylphenyl)-5,6-dihydro-pyrimido[4′,5′-3,4]pyrrolo[1,2-a]quinoxaline-8,10-(7H,9H)-dione] |
|  | < 10% | 50% |  |  | COc1ccc(O)c(C2Nc3ccccc3-n3c(-c4cccc(C)c4)c4c(=O)n(C)c(=O)n(C)c4c32)c1 (stereo not drawn) [PPQ-246, 7,9-Dimethyl-11-(3-methylphenyl)-6-(2-hydroxy-5-methoxylphenyl)-5,6-dihydro-pyrimido[4′,5′-3,4]pyrrolo[1,2-a]quinoxaline-8,10-(7H,9H)-dione] |
| 1700 nM | 73% | > 95% | 73% |  | COc1cccc(C2Nc3ccccc3-n3c(-c4cccc(C)c4)c4c(=O)n(C)c(=O)n(C)c4c32)c1 (stereo not drawn) [PPQ-210, 7,9-Dimethyl-11-(3-methylphenyl)-6-(3-methoxyphenyl)-5,6-dihydro-pyrimido[4′,5′-3,4]pyrrolo[1,2-a]quinoxaline-8,10-(7H,9H)-dione] |
| 800 nM | 84% | 90% | 84% | 90% | Cc1ccc(C2Nc3cc(C)c(C)cc3-n3c(-c4ccccc4)c4c(=O)n(C)c(=O)n(C)c4c32)o1 (stereo not drawn) [PPQ-104, 2,3,7,9-Tetramethyl-11-phenyl-6-(5-methylfuran-2-yl)-5,6-dihydro-pyrimido[4′,5′-3,4]pyrrolo[1,2-a]quinoxaline-8,10-(7H,9H)-dione] |
| 700 nM | > 95% | > 95% |  |  | Cc1cccc(-c2c3c(=O)n(C)c(=O)n(C)c3c3n2-c2ccccc2NC3c2ccc(C)o2)c1 (stereo not drawn) [PPQ-101, 7,9-Dimethyl-11-(3-methylphenyl)-6-(5-methylfuran-2-yl)-5,6-dihydro-pyrimido[4′,5′-3,4]pyrrolo[1,2-a]quinoxaline-8,10-(7H,9H)-dione] |
|  | 28% | 58% |  |  | Cn1c(=O)c2c(-c3ccccc3)n3c(c2n(C)c1=O)C(c1ccc2c(c1)OCO2)Nc1ccccc1-3 (stereo not drawn) [PPQ-301, 7,9-Dimethyl-11-phenyl-6-(1,3-benzodioxol-5-yl)-5,6-dihydro-pyrimido[4′,5′-3,4]pyrrolo[1,2-a]quinoxaline-8,10-(7H,9H)-dione] |
| 1700 nM | 71% | 94% | 71% | 94% | Cc1cccc(-c2c3c(=O)n(C)c(=O)n(C)c3c3n2-c2ccccc2NC3c2ccc(O)cc2)c1 (stereo not drawn) [PPQ-209, 7,9-Dimethyl-11-(3-methylphenyl)-6-(4-hydroxyphenyl)-5,6-dihydro-pyrimido[4′,5′-3,4]pyrrolo[1,2-a]quinoxaline-8,10-(7H,9H)-dione] |
|  | 36% | 92% |  |  | Cc1cc2c(cc1C)-n1c(-c3ccccc3)c3c(=O)n(C)c(=O)n(C)c3c1C(c1cccc(O)c1)N2 (stereo not drawn) [PPQ-223, 2,3,7,9-Tetramethyl-11-phenyl-6-(3-hydroxyphenyl)-5,6-dihydro-pyrimido[4′,5′-3,4]pyrrolo[1,2-a]quinoxaline-8,10-(7H,9H)-dione] |
| 1200 nM | 72% | 93% | 72% | 93% | Cn1c(=O)c2c(-c3ccccc3)n3c(c2n(C)c1=O)C(c1cccc(F)c1F)Nc1ccccc1-3 (stereo not drawn) [PPQ-201, 7,9-Dimethyl-11-phenyl-6-(2,3-difluorophenyl)-5,6-dihydro-pyrimido[4′,5′-3,4]pyrrolo[1,2-a]quinoxaline-8,10-(7H,9H)-dione] |
